Assays:
Transporter = Transporter (Rattus norvegicus, UniProt Q63380); assay: Displacement of [3H]nisoxetine from NET in rat frontal cortex by scintillation counting; assay type: tissue-based
[1] = target: Sodium-dependent serotonin transporter (Rattus norvegicus, UniProt P31652); assay: Displacement of [3H]citalopram from SERT in rat brain stem by scintillation counting; assay type: tissue-based
Rattus norvegicus [2] = species on record: Rattus norvegicus; assay: Selectivity ratio of Ki for NET in rat brain frontal cortex to Ki for SERT in rat brain stem; assay type: tissue-based
[3] = target: Sodium-dependent dopamine transporter (Rattus norvegicus, UniProt P23977); assay: Displacement of [3H]WIN-35428 from DAT in rat caudate-putamen by scintillation counting; assay type: tissue-based
Sequence of Sodium-dependent dopamine transporter (P23977 whole entry): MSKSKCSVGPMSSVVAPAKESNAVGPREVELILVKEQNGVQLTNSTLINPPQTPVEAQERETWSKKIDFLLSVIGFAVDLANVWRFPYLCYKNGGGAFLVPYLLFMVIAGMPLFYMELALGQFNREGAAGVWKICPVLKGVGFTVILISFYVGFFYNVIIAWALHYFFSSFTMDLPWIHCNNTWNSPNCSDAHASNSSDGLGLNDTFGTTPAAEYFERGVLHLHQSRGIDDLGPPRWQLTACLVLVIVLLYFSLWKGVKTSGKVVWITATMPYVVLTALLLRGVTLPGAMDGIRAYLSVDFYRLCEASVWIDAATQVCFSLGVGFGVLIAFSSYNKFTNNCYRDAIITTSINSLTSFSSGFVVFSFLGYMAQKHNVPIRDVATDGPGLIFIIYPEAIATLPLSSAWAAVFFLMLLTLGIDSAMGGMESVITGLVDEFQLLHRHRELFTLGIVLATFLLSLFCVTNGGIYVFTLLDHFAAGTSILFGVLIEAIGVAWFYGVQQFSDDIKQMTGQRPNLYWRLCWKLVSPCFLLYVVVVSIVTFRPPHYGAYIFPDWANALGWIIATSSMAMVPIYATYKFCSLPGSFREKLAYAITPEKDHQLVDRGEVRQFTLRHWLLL

Rattus norvegicus [4] = species on record: Rattus norvegicus; assay: Selectivity ratio of Ki for DAT in rat caudate-putamen to Ki for SERT in rat brain stem; assay type: tissue-based
[5] = Displacement of [3H]leucine from Leucine transporter

Sequence of Sodium-dependent serotonin transporter (P31652 whole entry): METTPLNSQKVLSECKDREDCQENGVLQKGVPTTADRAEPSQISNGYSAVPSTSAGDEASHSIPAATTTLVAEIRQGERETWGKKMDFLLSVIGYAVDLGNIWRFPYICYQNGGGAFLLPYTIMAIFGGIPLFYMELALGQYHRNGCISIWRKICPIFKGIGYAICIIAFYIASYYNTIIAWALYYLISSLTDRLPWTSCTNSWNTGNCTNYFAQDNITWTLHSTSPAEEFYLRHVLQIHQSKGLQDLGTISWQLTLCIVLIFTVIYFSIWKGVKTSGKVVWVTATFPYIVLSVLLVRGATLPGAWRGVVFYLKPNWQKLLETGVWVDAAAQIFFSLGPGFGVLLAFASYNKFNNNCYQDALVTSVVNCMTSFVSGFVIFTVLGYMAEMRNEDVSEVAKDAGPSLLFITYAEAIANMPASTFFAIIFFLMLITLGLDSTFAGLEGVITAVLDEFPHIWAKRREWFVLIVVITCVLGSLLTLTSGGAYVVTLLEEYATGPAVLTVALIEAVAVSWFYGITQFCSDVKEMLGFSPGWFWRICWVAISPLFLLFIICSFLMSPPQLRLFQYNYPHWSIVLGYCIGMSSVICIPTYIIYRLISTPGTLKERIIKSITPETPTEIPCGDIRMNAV
Sequence of Transporter (Q63380 whole entry): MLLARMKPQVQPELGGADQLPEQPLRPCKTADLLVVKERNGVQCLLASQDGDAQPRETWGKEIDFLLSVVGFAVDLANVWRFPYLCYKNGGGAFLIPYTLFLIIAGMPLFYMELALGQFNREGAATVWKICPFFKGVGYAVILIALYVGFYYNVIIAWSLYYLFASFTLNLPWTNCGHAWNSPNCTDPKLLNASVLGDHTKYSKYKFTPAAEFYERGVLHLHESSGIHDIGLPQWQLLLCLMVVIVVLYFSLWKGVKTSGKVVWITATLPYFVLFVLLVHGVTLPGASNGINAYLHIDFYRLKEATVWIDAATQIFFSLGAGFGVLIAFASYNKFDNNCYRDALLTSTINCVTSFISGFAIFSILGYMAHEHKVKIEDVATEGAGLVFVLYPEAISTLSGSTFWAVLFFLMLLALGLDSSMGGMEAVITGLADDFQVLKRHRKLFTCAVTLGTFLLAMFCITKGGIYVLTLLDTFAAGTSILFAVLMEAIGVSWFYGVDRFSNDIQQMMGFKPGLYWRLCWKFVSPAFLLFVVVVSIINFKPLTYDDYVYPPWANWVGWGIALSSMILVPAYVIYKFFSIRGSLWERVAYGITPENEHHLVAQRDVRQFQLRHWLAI

Structure (SMILES)	Ki (Transporter) [µM]	Ki [1] [µM]	Ratio Ki (Rattus norvegicus [2])	Ki [3] [µM]	Ratio Ki (Rattus norvegicus [4])	IC50 [5] [µM]
CN(C)CCCC1(c2ccc(F)cc2)OCc2cc(/C=C/c3ccccc3)ccc21 (racemic)	11.4	0.00932	1220	0.836	90	–
CN(C)CCC[C@@]1(c2ccc(F)cc2)OCc2cc(C#N)ccc21 [ESCITALOPRAM]	–	–	–	–	–	1560
COc1cccc(-c2ccc3c(c2)COC3(CCCN(C)C)c2ccc(F)cc2)c1 (configuration not stated)	2.61	0.0092	–	–	–	–
CN(C)CCCC1(c2ccc(F)cc2)OCc2cc(I)ccc21 (configuration not stated)	–	0.00142	–	1.35	–	–
CN(C)CCC[C@]1(c2ccc(F)cc2)OCc2cc(/C=C/c3ccccc3)ccc21	5.19	0.113	46	0.541	4.79	–
CN(C)CCCC1(c2ccc(F)cc2)OCc2cc(-c3cccc(C#N)c3)ccc21 (configuration not stated)	4.98	0.0067	743	0.737	110	–
CN(C)CCCC1(c2ccc(F)cc2)OCc2cc(-c3cc(F)cc(F)c3)ccc21 (configuration not stated)	2	0.108	–	–	–	–
CN(C)CCCC1(c2ccc(F)cc2)OCc2cc(CCc3ccccc3)ccc21 (configuration not stated)	4.63	0.0381	–	–	–	–
CN(C)CCCC1(c2ccc(F)cc2)OCc2cc(-c3cccc(N)c3)ccc21 (configuration not stated)	–	0.0104	–	1.69	–	–
CN(C)CCCC1(c2ccc(F)cc2)OCc2cc(-c3ccc(Cl)c(Cl)c3)ccc21 (configuration not stated)	12.7	0.143	89	2.51	18	–
CN(C)CCC[C@@]1(c2ccc(F)cc2)OCc2cc(Br)ccc21	8.41	0.00092	9140	2.25	2450	400
CN(C)CCCC1(c2ccc(F)cc2)OCc2c(/C=C/c3ccccc3)cccc21 (configuration not stated)	11.9	0.0464	256	1.14	25	–
CN(C)CCCC1(c2ccc(F)cc2)OCc2c(-c3ccccc3)cccc21 (configuration not stated)	7.16	0.00507	1410	0.542	107	–
CN(C)CCCC1(c2ccc(F)cc2)OCc2cc(-c3cccc(Cl)c3)ccc21 (configuration not stated)	5.71	0.0612	93	1.39	23	–
CN(C)CCCC1(c2ccc(F)cc2)OCc2cc(Br)ccc21 (racemic)	28.4	0.00104	–	–	–	–
CN(C)CCCC1(c2ccc(F)cc2)OCc2c(-c3cccc(F)c3)cccc21 (configuration not stated)	7.67	0.00822	933	0.49	60	–
CN(C)CCCC1(c2ccc(F)cc2)OCc2cc(-c3ccccc3)ccc21 (configuration not stated)	16.9	0.04	423	1.8	45	–
CN(C)CCC[C@]1(c2ccc(F)cc2)OCc2cc(Br)ccc21	21.6	0.0236	915	1.35	57	420
CN(C)CCCC1(c2ccc(F)cc2)OCc2c(Br)cccc21 (configuration not stated)	6.17	0.00387	1590	0.216	56	–
CN(C)CCCC1(c2ccc(F)cc2)OCc2cc(-c3cccc(F)c3)ccc21 (configuration not stated)	4.2	0.0218	–	–	–	–
CN(C)CCCC1(c2ccc(F)cc2)OCc2cc(/C=C/c3ccc(Cl)cc3)ccc21 (configuration not stated)	25.1	0.0336	747	2	60	–
CN(C)CCC[C@@]1(c2ccc(F)cc2)OCc2cc(/C=C/c3ccccc3)ccc21	16.8	0.0106	1590	1.81	171	–

— ChEMBL document CHEMBL1212898 (J Med Chem, 2010)
